This test has as its system T1, General amino-acid permease GAP1 (Saccharomyces cerevisiae), P19145 [I384C].
T1 sequence (whole entry): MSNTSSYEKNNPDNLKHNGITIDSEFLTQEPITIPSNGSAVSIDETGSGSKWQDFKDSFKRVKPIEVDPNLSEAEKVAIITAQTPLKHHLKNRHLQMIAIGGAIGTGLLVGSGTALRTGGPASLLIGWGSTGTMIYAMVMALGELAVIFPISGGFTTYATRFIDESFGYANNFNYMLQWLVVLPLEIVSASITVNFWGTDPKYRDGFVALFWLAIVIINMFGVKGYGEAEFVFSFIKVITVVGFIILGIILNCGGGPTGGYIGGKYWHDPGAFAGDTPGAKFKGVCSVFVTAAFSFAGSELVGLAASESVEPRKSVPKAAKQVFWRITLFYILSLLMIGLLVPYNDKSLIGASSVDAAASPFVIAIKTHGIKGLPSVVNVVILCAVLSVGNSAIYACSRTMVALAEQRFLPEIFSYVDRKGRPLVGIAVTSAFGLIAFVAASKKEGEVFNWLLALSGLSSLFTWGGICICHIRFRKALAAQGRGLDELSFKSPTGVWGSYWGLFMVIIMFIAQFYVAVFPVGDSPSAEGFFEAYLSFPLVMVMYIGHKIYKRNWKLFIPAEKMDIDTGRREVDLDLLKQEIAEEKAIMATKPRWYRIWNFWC
Kind of test: Induction of yeast Gap1 I384C mutant-mediated trehalose activation at 10 mM.

Active and inactive are the calls of the source. No cut-off for these calls is given here.

Turning to `NC(=O)NCCC[C@H](N)C(=O)O`, the result was inactive.

The values above are taken from ChEMBL document CHEMBL1221220, “Transport and signaling via the amino acid binding site of the yeast Gap1 amino acid transceptor” (Nat Chem Biol, 2009).
